# According to patent US20080207640A1, “Method of treating cell proliferative disorders using growth hormone secretagogues” (Sapphire Therapeutics, priority 2007, published 2008):
# Values joined by “and” are separate entries in the source; they are usually repeats but may differ in a detail not shown here. Equal values may be shown once.
# Experiments:
# Assay type in all cases: in vivo, human
# IGF-1 [1] = assay: Example 1 double blind, placebo controlled, randomized study: IGF-1 levels
# Protocol: (§1) A double blind, placebo controlled, randomized study was designed to investigate the ability of growth hormone secretagogues to be used for the treatment of cell proliferative disorders.
# (§2) Subjects were separated in to two groups: the placebo group and the RC-1291 group. The RC-1291 group received 50 mg of RC-1291 in two 25 mg capsules daily. The capsules were microcrystalline cellulose, magnesium stearate and RC-1291 HCl (25 mg) in a hard gelatin capsule. The placebo group received two placebo capsules daily. The placebo capsule was microcrystalline cellulose in a hard gelatin capsule.
# (§3) One hour before breakfast subjects were administered the two capsules after fasting during the night.
# (§4) At various points over the course of the three month study, levels of IGFBP-3 and IGF-1 were measured in both the placebo and RC-1291 groups.
# [2] = Example 3 cancer cachexia: total body weight, subjects of Example 2; conditions: 50 and 100 mg, FIG. 12
# Protocol: (§5) The placebo controlled, randomized studies described above were used to investigate the ability of growth hormone secretagogues to treat subjects having cancer cachexia.
# (§6) Total body mass and lean body mass were measured for subjects described in Example 1 (see FIGS. 10, and 11, respectively.) Lean body mass and total body mass were measured by dual-energy x-ray absorptiometry (DEXA). Total body weight was measured for subjects described in Example 2 (see, FIG. 12).
# IGF-1 [3] = assay: Example 2 second double blind, placebo controlled, randomized study: serum IGF-1; conditions: for IGF-1: serum
# Protocol: (§7) A second double blind, placebo controlled, randomized study was designed to investigate the ability of growth hormone secretagogues to be used for the treatment of cell proliferative disorders.
# (§8) Subjects were separated into groups and administered a placebo or RC-1291 (Formula III). Each group was administered the appropriate number of capsules. The capsules were microcrystalline cellulose, magnesium stearate and RC-1291 HCl (25 mg) in a hard gelatin capsule. The placebo capsule was microcrystalline cellulose in a hard gelatin capsule. The RC-1291 groups received 50 mg or 100 mg of RC-1291 daily.
# (§9) Serum was obtained at office visits, clearly labeled, and stored frozen at −20° C. prior to shipment on dry ice to CRL, Lenexa, Kans. for analysis. Samples were assayed for IGF-1 and IGFBP-3.
# IGFBP-3 [4] = assay: Example 1 double blind, placebo controlled, randomized study: IGFBP-3 levels
# Protocol: as §1, §2, §3, §4
# [5] = Example 3 cancer cachexia: lean body mass and total body mass by DEXA, subjects of Example 1; conditions: FIG. 11
# Protocol: as §5, §6
# IGFBP-3 [6] = assay: Example 2 second double blind, placebo controlled, randomized study: serum IGFBP-3; conditions: for IGFBP-3: serum
# Protocol: as §7, §8, §9
# [7] = 50 mg RC-1291 daily, capsules, at 4 weeks, N = 32
# [8] = 50 mg RC-1291 daily, capsules, at 8 weeks, N = 32
# [9] = 50 mg RC-1291 daily, capsules, at 12 weeks, N = 32
# [10] = Example 1, 50 mg daily, vs placebo
# [11] = Example 2, 50 mg or 100 mg daily, vs placebo
smiles,measurement,setting,value
CN(C)N(C)C(=O)[C@@]1(Cc2ccccc2)CCCN(C(=O)[C@@H](Cc2c[nH]c3ccccc23)NC(=O)C(C)(C)N)C1 [RC-1291],IGF-1 change from baseline (nM) At 4 weeks,IGF-1 [1]; [7],6.626 nM
same,IGF-1 change from baseline (nM) At 8 weeks,IGF-1 [1]; [8],4.729 nM
same,IGF-1 change from baseline (nM) At 12 weeks,IGF-1 [1]; [9],5.046 nM
same,levels of IGF-1 (in words),IGF-1 [1]; [10],raises the levels of both IGFBP-3 and IGF-1 in a statistically significant manner
same,change in total body weight (in words),[2],gained lean body mass and total body weight
same,IGF-1,"IGF-1 [3]; 50 mg daily, week 1",40.69 ng/mL and 5.32 nM
same,IGF-1,"IGF-1 [3]; 50 mg daily, week 2",57 ng/mL and 7.45 nM
same,IGF-1,"IGF-1 [3]; 50 mg daily, week 4",46.5 ng/mL and 6.08 nM
same,IGF-1,"IGF-1 [3]; 100 mg daily, week 1",80.25 ng/mL and 10.49 nM
same,IGF-1,"IGF-1 [3]; 100 mg daily, week 2",76.25 ng/mL and 9.97 nM
same,IGF-1,"IGF-1 [3]; 100 mg daily, week 4",73.4 ng/mL and 9.60 nM
same,levels of IGF-1 (in words),IGF-1 [3]; [11],raised the levels of both IGFBP-3 and IGF-1 in a statistically significant manner
same,IGFBP-3 change from baseline (nM) At 4 weeks,IGFBP-3 [4]; [7],26.89 nM
same,IGFBP-3 change from baseline (nM) At 8 weeks,IGFBP-3 [4]; [8],17.7 nM
same,IGFBP-3 change from baseline (nM) At 12 weeks,IGFBP-3 [4]; [9],20.66 nM
same,"effects on IGFBP-3 relative to effects on IGF-1, on a molar basis","IGFBP-3 [4]; Example 1, 50 mg daily",greater than 3 fold
same,levels of IGFBP-3 (in words),IGFBP-3 [4]; [10],raises the levels of both IGFBP-3 and IGF-1 in a statistically significant manner
same,change in lean body mass (in words),[5],gained lean body mass and total body weight
same,IGFBP-3,"IGFBP-3 [6]; 50 mg daily, week 1",580 ng/mL and 20.19 nM
same,IGFBP-3,"IGFBP-3 [6]; 50 mg daily, week 2",540 ng/mL and 18.79 nM
same,IGFBP-3,"IGFBP-3 [6]; 50 mg daily, week 4",610 ng/mL and 21.23 nM
same,IGFBP-3,"IGFBP-3 [6]; 100 mg daily, week 1",900 ng/mL and 31.32 nM
same,IGFBP-3,"IGFBP-3 [6]; 100 mg daily, week 2",670 ng/mL and 23.32 nM
same,IGFBP-3,"IGFBP-3 [6]; 100 mg daily, week 4",970 ng/mL and 33.76 nM
same,levels of IGFBP-3 (in words),IGFBP-3 [6]; [11],raised the levels of both IGFBP-3 and IGF-1 in a statistically significant manner
